Experiment [1] has as its system SW620 cells. The experiment in a line: FACS-based phagocytosis assay, mouse BMDMs with SW620 target cells. Format: cell-based, human. The conditions noted are these: for phagocytosis of tumor cells after treatment of macrophages with TLR agonist: SW620 (PBS-treated, Hu5F9-G4-treated or CD47KO), γc-/- or NSG mice, FIG. 6A-6B. How it is done:
We performed phagocytosis assays by co-culturing mouse bone marrow-derived macrophages (BMDMs) and target human cancer cells to examine the efficacy of PrCR under different conditions. To induce phagocytosis, we blocked CD47 on a human colon cancer cell line (SW620) by either treating tumor cells with CD47 blocking antibodies or directly knocking it out.
(§1) Phagocytosis assay. FACS-based phagocytosis assays were performed to evaluate phagocytic abilities of macrophages. Macrophages were harvested after 6-8 days of differentiation and divided into FACS tubes or low-attachment 96-well plates, with 1-5×10^4 cells per well/tube. Target cells were added and mixed with macrophages, and incubated at 37° C. for 2 hrs with indicated conditions (antibody/drug treatment). For CD47 blockade, anti-CD47 (B6H12, BD Biosciences) or humanized anti-CD47 (Hu5F9-G4; provided by the CD47 disease team at Stanford University) antibodies were used. Cells were then incubated with PE cy7-conjugated anti-mouse F4/80 antibody to stain macrophages. After incubation, cells were washed with FACS buffer and resuspended with FACS buffer containing sytox blue to distinguish dead cells. Phagocytic index was examined by FACS analyses, and macrophages that phagocytosed target cells were F4/80+ and GFP+. Phagocytic index was calculated with the number of F4/80+GFP+ cells/divided by the number of F4/80+ cells. In each experiment, phagocytic indexes were normalized to the maximal indexes.
Alternatively, macrophages and target cells were mixed and cocultured in 24 well plates for 16-24 hrs with indicated conditions. Cells were collected from the plates by TrypLE and incubated with PE cy7-conjugated anti-mouse F4/80 antibody to stain for macrophages. After incubation, cells were washed with FACS buffer and resuspended with FACS buffer containing sytox blue and non-colored standard cells (293T cells were used as standard cells). Cells were then subjected to FACS analyses. Remaining target cells were normalized to standard cells (numbers of standard cells were known and equal in each sample) to evaluate the percentage of cells phagocytosed by macrophages during the incubation.

The subject of experiment [2] is SW620 cells. The experiment can be described thus: Phagocytosis assay, human PBMC-derived macrophages with SW620 target cells. Format: cell-based. The conditions noted are these: SW620 Control IgG- or B6H12-treated; FIG. 10D.
Description: The cells were examined by flow cytometry analyses. Remaining target cells were used to evaluate efficacy of phagocytosis, with less remaining target cells representing stronger phagocytosis. […] Error bars represent standard deviation (FIGS. 10A, 10C and 10D).
Human peripheral blood-derived macrophages were generated as previously described.
Phagocytosis assay. FACS-based phagocytosis assays were performed to evaluate phagocytic abilities of macrophages. […] Target cells were added and mixed with macrophages, and incubated at 37° C. for 2 hrs with indicated conditions (antibody/drug treatment). For CD47 blockade, anti-CD47 (B6H12, BD Biosciences) or humanized anti-CD47 (Hu5F9-G4; provided by the CD47 disease team at Stanford University) antibodies were used. Cells were then incubated with PE cy7-conjugated anti-mouse F4/80 antibody to stain macrophages. After incubation, cells were washed with FACS buffer and resuspended with FACS buffer containing sytox blue to distinguish dead cells. Phagocytic index was examined by FACS analyses, and macrophages that phagocytosed target cells were F4/80+ and GFP+. Phagocytic index was calculated with the number of F4/80+GFP+ cells/divided by the number of F4/80+ cells. In each experiment, phagocytic indexes were normalized to the maximal indexes.
The subject of experiment [3] is calreticulin (CRT). The experiment can be described thus: Cell surface exposure of CRT on macrophages (cell surface biotinylation, flow cytometry). Format: cell-based, mouse. Particulars: for cell surface CRT on macrophages, cell surface biotinylation assay: immunoblots, FIG. 3A; for cell surface exposure of CRT on macrophages, flow cytometry: TLR agonist treatment, FIG. 3B, 10B. The method, then: Flow cytometry Analysis. Flow cytometry analyses were performed using a BD LSRFortessa. For staining, 2.5×10^5-10^6 cells were incubated with indicated antibodies (1:50-1:200) in FACS buffer (PBS with 2% fetal bovine serum) on ice for 30 minutes. Cells were then washed with FACS buffer and subjected to FACS analyses. For staining of macrophages, cells were first treated with Fc receptor blockers or a high concentration of isotype IgG control (5-10 times of indicated antibodies) to block non-specific binding of antibodies caused by the interaction of Fc domain and Fc receptors on macrophages.
Cell surface biotinylation. […] Cells were incubated with NHS-SS-Biotin (0.5 mg/ml) for 1 hr in PBS (pH8.0), and then rinsed with quench buffer (20 mM Tris-HCl, 120 mM NaCl, pH7.4), 100 mM Glycine in PBS, and PBS. Cells were lysed in lysis buffer (20 mM Tris-HCl, pH7.4, 150 mM NaCl, 2 mM EDTA, supplemented with 1% Triton X-100, protease inhibitor cocktail and phosphatase inhibitor cocktail). Cell lysate was incubated with neutravidin agarose resin for 4 hr at 4° C., and the resin was washed using lysis buffer. Biotin-labeled proteins were eluted with lysis buffer containing 2% SDS and 100 mM DTT, and subjected to SDS-PAGE and immunoblotting. Intracellular protein GAPDH was used as a negative control to confirm that only cell surface proteins were labeled by NHS-SS-Biotin.

Experiment [4] has as its system calreticulin (CRT). The experiment in a line: CRT phosphorylation in J774 cells expressing myc-CRT (immunoprecipitation, immunoblot). Format: cell-based, mouse. The conditions noted are these: myc-tagged CRT, FIG. 10E. How it is done:
Immunoprecipitation. Calreticulin was immunoprecipitated from J774 cells expressing myc-CRT. J774 cells were plated 12 hrs before immunoprecipitation. Cells were treated with imiquimod (1 ug/ml) at indicated time points, and washed with pre-chilled PBS containing phosphatase inhibitors on ice. Cells were then lysed in lysis buffer (20 mM Tris-HCl, pH7.4, 150 mM NaCl, 2 mM EDTA, supplemented with 1% Triton X-100, protease inhibitor cocktail and phosphatase inhibitor cocktail). Cell lysate was incubated for 1 hr with GammaBind Plus Sepharose for preclearance and 4 hr with anti-myc antibodies at 4° C. GammaBind sepharose was added to cell lysate and incubated for 1 hr at 4° C. Beads were washed with lysis buffer. Proteins were eluted with lysis buffer containing 2% SDS and 100 mM DTT, and subjected to SDS-PAGE and immunoblotting. To detect phosphorylated CRT, the blot was incubated with biotin-labeled pT66 anti-p-Tyrosine antibody and HRP-conjugated streptavidin.
For orientation: In western blotting, separated proteins are transferred to a membrane and probed.

The subject of experiment [5] is HL60, Raji, PC3, MDA-MB-231 cells. The experiment in a line: Phagocytosis assay, mouse BMDMs with multiple hematopoietic and solid tumor cells. Format: cell-based, human. The conditions noted are these: macrophages treated with TLR3, 4 and 7 agonists; FIGS. 6A-C and 7A-D.
Description: FIG. 7A-7D. Phagocytosis of HL60, Raji, PC-3, MDA-MB-231 is enhanced by TLR agonists. Phagocytosis assays showing TLR agonists enhanced phagocytosis of multiple human cancer cells, with different hematopoietic (HL60 and Raji) and solid tumor (PC3 and MDA-MB-231) cells (PBS- or Hu5F9-G4-treated) as target cells and BMDMs from NSG (HL60, Raji and PC3) or RAG2^−/−, γc^−/− (MDA-MB-231) mice. HL60: Promyelocytic leukemia; Raji: Burkitt's lymphoma; PC3: Prostate cancer; MDA-MB-231: Breast cancer. Error bars represent standard deviation (FIG. 7A-7D).
as §1

A further experiment concerns the target T1, Btk (Mus musculus, UniProt P35991).
T1 construct: endogenous in cells; probably mouse bone-marrow-derived macrophages
The experiment in a line: Immunoblot of Btk phosphorylation in macrophages. Format: cell-based. The conditions noted are these: treatment with TLR agonist, FIG. 2B. From the text:
FIG. 2A-2D. […] Error bars represent standard deviation (FIGS. 2A, 2C and 2D).

The test system of experiment [6] is PC3 prostate cancer cells. The experiment can be described thus: Flow cytometry of dissociated PC3 tumor specimens from treated NSG mice. Format: in vivo, mouse. The conditions noted are these: PC3 tumors in NSG mice; FIG. 8B. The method, then: Tumor engraftment and treatment. PC3 cells (human prostate cancer) were suspended in F-12K medium with 25% matrix matrigel, and injected subcutaneously on the back of 6-10 week NSG mice. Mice were treated with PBS or Hu5F9-G4 antibody by intraperitoneal injection 2 weeks after engraftment, and PBS or TLR agonists (20 μg of Poly (I:C) HMW and 20 μg of LPS) by intratumoral injection 7 weeks after engraftment when tumors reached 100 mm^3.
Tumor dissociation and FACS analyses. Tumor specimens were collected from the mice, minced to pieces smaller than 1 mm in diameter and dissociated in medium 199 with TM enzymes and DNAase at 37° C. until single-cell suspension was achieved. The cells were treated with ACK lysing buffer for lysis of red blood cells, washed twice with HBSS, filtered through 70 μm cell strainer and subjected to flow cytometry analyses. The cells were stained with anti-CD31 antibody, anti-Gr-1 antibody and sytox blue to exclude endothelial cells, neutrophils and dead cells, and with anti-F4/80 antibody for macrophages.
For orientation: A flow cytometer gives signals particle by particle.

T1 sequence (P35991 whole entry): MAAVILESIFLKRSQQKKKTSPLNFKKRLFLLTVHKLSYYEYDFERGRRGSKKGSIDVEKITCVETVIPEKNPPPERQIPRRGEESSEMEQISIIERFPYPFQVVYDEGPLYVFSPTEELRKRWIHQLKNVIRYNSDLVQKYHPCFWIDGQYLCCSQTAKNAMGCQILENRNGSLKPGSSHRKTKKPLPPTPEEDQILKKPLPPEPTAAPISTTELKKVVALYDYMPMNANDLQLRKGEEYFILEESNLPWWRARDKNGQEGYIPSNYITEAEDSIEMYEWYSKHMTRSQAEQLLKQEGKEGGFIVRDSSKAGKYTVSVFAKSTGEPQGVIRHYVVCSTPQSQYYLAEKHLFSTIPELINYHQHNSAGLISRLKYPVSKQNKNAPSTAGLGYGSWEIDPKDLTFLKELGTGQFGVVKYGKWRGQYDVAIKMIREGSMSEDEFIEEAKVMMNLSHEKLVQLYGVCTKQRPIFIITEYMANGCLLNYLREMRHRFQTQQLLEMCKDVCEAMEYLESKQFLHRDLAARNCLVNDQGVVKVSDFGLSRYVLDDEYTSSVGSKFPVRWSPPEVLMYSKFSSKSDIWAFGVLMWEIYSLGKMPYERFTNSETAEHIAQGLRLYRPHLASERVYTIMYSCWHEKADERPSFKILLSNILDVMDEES

With `C=CC(=O)N1CCC[C@@H](n2nc(-c3ccc(Oc4ccccc4)cc3)c3c(N)ncnc32)C1` [ibrutinib, 1-[(3R)-3-[4-amino-3-(4-phenoxyphenyl)pyrazolo[3,4-d]pyrimidin-1-yl]piperidin-1-yl]prop-2-en-1-one], the “basal level phagocytosis of cancer cells (resting macrophages)” value in the experiment with SW620 cells [1] (Fc-dependent and -independent, 16 hr coculture, BMDMs from RAG2-/-, γc-/- mice, FIG. 10A) is “inhibitory effect”. Besides, the “phagocytosis induced by TLR agonists, combined with inhibitor” value in the experiment on SW620 cells [1] (SW620 (control or CD47KO), BMDMs from RAG2-/-, γc-/- mice, FIG. 2A) was “significantly attenuated”. The “time to maximal inhibition of phagocytosis on blockade of Btk” value in the experiment with SW620 cells [1] (SW620 CD47KO target cells, BMDMs from NSG mice, FIG. 2D) is not above 1 h. Besides, in the experiment with SW620 cells [2], the “phagocytosis of SW620 cells by human PBMC-derived macrophages” value was “inhibited phagocytosis”. The “imiquimod-induced cell surface expression of CRT on macrophages with ibrutinib” value in the experiment on calreticulin (CRT) [3] (imiquimod+ibrutinib, flow cytometry, FIG. 10B) is reported as “reversed”. In the experiment with calreticulin (CRT) [3], the “cell surface CRT on macrophages, cell surface biotinylation assay” value is “decreased”.
Regarding `CC(C)Cn1cnc2c(N)nc3ccccc3c21` [imiquimod, Imiquimod], the “time of treatment to maximal level of CRT phosphorylation” value in the experiment on calreticulin (CRT) [4] is recorded as 30 min. Moreover, the “phagocytosis of multiple hematopoietic and solid tumor cells” value in experiment [5] was “dramatically enhanced”. Further, the “Btk phosphorylation in macrophages” value on Btk was “stimulated Btk to be phosphorylated”. Further, in the experiment on SW620 cells [1] (BMDMs from RAG2-/-), the “phagocytosis of tumor cells after treatment of macrophages with TLR agonist” value (shortened to “phagocytosis of tumor cells”) is on record as “promoted phagocytosis”. Besides, the “duration of Btk-activation for maximal phagocytic ability of macrophages” value in the experiment with SW620 cells [1] (SW620 CD47KO target cells, BMDMs from NSG mice, FIG. 2C) came to 16 h. In addition, in the experiment with calreticulin (CRT) [3], the “cell surface exposure of CRT on macrophages, flow cytometry” value (“cell surface exposure of CRT” for short) was “Increased cell surface exposure” and the “cell surface CRT on macrophages, cell surface biotinylation assay” value was “increased”. Moreover, the “cell surface exposure of CRT” value in the experiment with calreticulin (CRT) [3] (listed as Imiquimod) is on record as “increased cell surface expression”.
For the molecule lipopolysaccharide [LPS], the “phagocytosis of multiple hematopoietic and solid tumor cells” value in experiment [5] is recorded as “dramatically enhanced”. For the same molecule, at Btk, the “Btk phosphorylation in macrophages” value is reported as “stimulated Btk to be phosphorylated”. The “phagocytic ability of macrophages” value in the experiment with SW620 cells [1] (SW620 (PBS- or Hu5F9-G4-treated), BMDMs from NSG mice, flow cytometry plots, FIG. 6C) is listed as “strongly enhanced”. Besides, the “phagocytosis of tumor cells” value with SW620 cells [1] (BMDMs from RAG2-/-) is “promoted phagocytosis”. Further, in the experiment on calreticulin (CRT) [3], the “cell surface exposure of CRT” value is listed as “Increased cell surface exposure”.
With “polyinosinic-polycytidylic acid-high molecular weight [Poly (I:C) HMW]”, in experiment [5], the “phagocytosis of multiple hematopoietic and solid tumor cells” value was “dramatically enhanced”. At Btk, the “Btk phosphorylation in macrophages” value was “stimulated Btk to be phosphorylated”. In addition, in the experiment with SW620 cells [1] (BMDMs from RAG2-/-), the “phagocytosis of tumor cells” value is “promoted phagocytosis”. Besides, the “cell surface exposure of CRT” value in the experiment on calreticulin (CRT) [3] is on record as “Increased cell surface exposure”.

B1: B6H12: anti-CD47 antibody (B6H12, BD Biosciences) (antibody, V domains shown)
VH: EVQLVESGGDLVKPGGSLKLSCAASGFTFSGYGMSWVRQTPDKRLEWVATITSGGTYTYYPDSVKGRFTISRDNAKNTLYLQIDSLKSEDTAIYFCARSLAGNAMDYWGQGTSVTVSS
VL: DIVMTQSPATLSVTPGDRVSLSCRASQTISDYLHWYQQKSHESPRLLIKFASQSISGIPSRFSGSGSGSDFTLSINSVEPEDVGVYYCQNGHGFPRTFGGGTKLEIK
As for B1, the “phagocytosis of SW620 cells on blockade of CD47” value with SW620 cells [1] (BMDMs from RAG2-/-, γc-/- mice, FIG. 1A) is listed as “induced phagocytosis”.

B2: Hu5F9-G4: humanized anti-CD47 antibody provided by the CD47 disease team at Stanford University (antibody, chains of the INN, looked up, V domains shown)
VH: QVQLVQSGAEVKKPGASVKVSCKASGYTFTNYNMHWVRQAPGQRLEWMGTIYPGNDDTSYNQKFKDRVTITADTSASTAYMELSSLRSEDTAVYYCARGGYRAMDYWGQGTLVTVSS
VL: DIVMTQSPLSLPVTPGEPASISCRSSQSIVYSNGNTYLGWYLQKPGQSPQLLIYKVSNRFSGVPDRFSGSGSGTDFTLKISRVEAEDVGVYYCFQGSHVPYTFGQGTKLEIK
With B2, in experiment [6], the “macrophages (a1+a2) in tumor specimens” value was 46.26%; the “macrophages that had phagocytosed tumor cells a2 (GFP+F4/80+), ongoing phagocytosis” value is given as 39.3%; the “tumor cells a4 (GFP+F4/80-) in tumor specimens” value was determined as 40%.
